Our source for the Selectivity and IC50 values is patent US20240317723A1, “SUBSTITUTED AMINO AZA-HETEROARYL COMPOUNDS AS INHIBITORS OF THE HAEMATOPOIETIC PROGENITOR KINASE 1 (HPK1)” (priority 2021, published 2024).

The target in assay [1] is Lck (h) (Homo sapiens, UniProt P06239). In words: Lck Human STE Kinase Enzymatic Radiometric Assay. The conditions noted are these: for Selectivity: selectivity for inhibition of HPK1 vs Lck; for IC50: radiometric, [gamma-33P]-ATP, Cdc2 peptide substrate, read-out: Lck IC50, nM Range*. In kind it is biochemical. Here is the method: (b) Lck Human STE Kinase Enzymatic Radiometric Assay
Lck (h), sequence (P06239 whole entry): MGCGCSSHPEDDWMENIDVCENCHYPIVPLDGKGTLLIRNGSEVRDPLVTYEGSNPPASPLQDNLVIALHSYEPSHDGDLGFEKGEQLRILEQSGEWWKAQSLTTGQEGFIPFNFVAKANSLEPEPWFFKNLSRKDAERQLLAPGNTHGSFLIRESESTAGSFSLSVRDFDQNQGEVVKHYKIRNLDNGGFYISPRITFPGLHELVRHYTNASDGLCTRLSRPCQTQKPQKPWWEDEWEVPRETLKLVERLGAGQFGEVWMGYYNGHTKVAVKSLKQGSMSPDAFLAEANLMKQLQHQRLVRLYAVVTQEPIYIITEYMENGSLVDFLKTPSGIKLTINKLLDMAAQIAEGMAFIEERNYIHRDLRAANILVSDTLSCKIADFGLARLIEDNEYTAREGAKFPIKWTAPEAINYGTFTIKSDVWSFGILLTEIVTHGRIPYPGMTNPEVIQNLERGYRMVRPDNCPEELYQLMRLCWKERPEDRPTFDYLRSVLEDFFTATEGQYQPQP
Lck (h) is incubated with 50 mM Tris pH 7.5, 0.1 mM EGTA, 0.1 mM Na3VO4, 250 uM KVEKIGEGTYGVVYK (Cdc2 peptide), 10 mM MgAcetate and [gamma-33P]-ATP (specific activity and concentration as required). The reaction is initiated by the addition of the Mg/ATP mix. After incubation for 40 minutes at room temperature, the reaction is stopped by the addition of phosphoric acid to a concentration of 0.5%. 10 uL of the reaction is then spotted onto a P30 filtermat and washed four times for 4 minutes in 0.425% phosphoric acid and once in methanol prior to drying and scintillation counting. For more details on the kinase assay procedures see: Gao, Y. et. al.; Biochem J., 451 (2): 313-328, 2013.
In some embodiments the presence of substituents on monocyclic Cy^2 rings or when Cy^2 is a bicyclic ring (unsubstituted or substituted) provides compounds with improved selectivity for inhibition of HPK1 vs Lck (see, for example, Table 3 and Table 4).

Assay [2] concerns the target T1, Recombinant (1-346) HPK1 (h) (Homo sapiens, UniProt Q92918).
T1 construct: Recombinant (1-346) HPK1 (h) is incubated with 8 mM MOPS pH 7.0
T1 sequence (Q92918 1-346): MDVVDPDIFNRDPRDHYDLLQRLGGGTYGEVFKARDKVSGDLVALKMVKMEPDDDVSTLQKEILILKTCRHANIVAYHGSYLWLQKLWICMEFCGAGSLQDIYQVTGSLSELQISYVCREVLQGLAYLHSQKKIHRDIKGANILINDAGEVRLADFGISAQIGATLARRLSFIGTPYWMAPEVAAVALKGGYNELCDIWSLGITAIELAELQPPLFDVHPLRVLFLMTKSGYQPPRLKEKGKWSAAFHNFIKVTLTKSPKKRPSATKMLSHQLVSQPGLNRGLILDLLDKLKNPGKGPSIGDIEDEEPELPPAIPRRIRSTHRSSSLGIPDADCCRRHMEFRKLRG
In words: HPK1 Human STE Kinase Enzymatic Radiometric Assay. In kind it is biochemical. The conditions noted are these: [gamma-33P]-ATP, myelin basic protein substrate, read-out: HPK1 IC50 nM Range*. Here is the method:
(a) HPK1 Human STE Kinase Enzymatic Radiometric Assay
A stock solution of 10 mM of test compound is prepared in DMSO. The compound plate was prepared by 3-fold and 9-point serial dilutions. Recombinant (1-346) HPK1 (h) is incubated with 8 mM MOPS pH 7.0, 0.2 mM EDTA, 0.33 mg/mL myelin basic protein, 10 mM MgAcetate and [gamma-33P]-ATP (specific activity and concentration as required). The reaction is initiated by the addition of the Mg/ATP mix. After incubation for 40 minutes at RT, the reaction is stopped by the addition of phosphoric acid to a concentration of 0.5%. 10 uL of the reaction is then spotted onto a P30 filtermat and washed four times for 4 minutes in 0.425% phosphoric acid and once in methanol prior to drying and scintillation counting. For more details of kinase assay protocols, see: Gao, Y. et. al.; Biochem J. 451 (2): 313-328, 2013.

As a reminder, the IC50 is the concentration needed to halve the response being measured.

For the compound `Nc1ncc(-c2ccc(N3CCOCC3)cc2)nc1-c1ccc2c(c1)CCNC2=O` [Comparator 1, 6-(3-amino-6-(4-morpholinophenyl)pyrazin-2-yl)-3,4-dihydroisoquinolin-1(2H)-one, reference compound], the Selectivity in assay [1] came out at 31.

`C[C@@H]1CN(c2ccc(-c3cnc(N)c(-c4ccc5c(c4)CCNC5=O)n3)cc2)C[C@H](C)N1C` [Example I-55, 6-(3-amino-6-(4-((3R,5S)-3,4,5-trimethylpiperazin-1-yl)phenyl)pyrazin-2-yl)-3,4-dihydroisoquinolin-1(2H)-one]: the IC50 in assay [2] lay within 0.1 to 5 nM.

As for `CN1CCN(c2ccc(-c3cc(-c4ccc5c(c4)CCNC5=O)c(N)nn3)cc2)CC1` [Example I-49, 6-(3-amino-6-(4-(4-methylpiperazin-1-yl)phenyl)pyridazin-4-yl)-3,4-dihydroisoquinolin-1(2H)-one], the IC50 in assay [2] is 21 to 200 nM.

In the case of `CC(C)[C@@H]1CN(c2ccc(-c3cnc(N)c(-c4ccc5c(c4)CCNC5=O)n3)cc2)CCO1` [Example I-7, (R)-6-(3-amino-6-(4-(2-isopropylmorpholino)phenyl)pyrazin-2-yl)-3,4-dihydroisoquinolin-1(2H)-one], the IC50 lay within 0.1 to 5 nM in assay [2] and 11 to 20 nM in assay [1].

In the case of `CN1CCN(c2ccc(-c3cnc(N)c(-c4ccc5c(c4)C(C)(C)NC5=O)n3)cc2)CC1` [Example I-2, 5-(3-amino-6-(4-(4-methylpiperazin-1-yl)phenyl)pyrazin-2-yl)-3,3-dimethylisoindolin-1-one], the IC50 lay in the range of 0.1 to 5 nM in assay [2] and 6 to 10 nM in assay [1].

As for `CC(C)N1C[C@@H]2C[C@]2(c2ccc(-c3cnc(N)c(-c4cc5c(cc4F)C(=O)NCC5)n3)cc2)C1` [Example I-48, 6-(3-amino-6-(4-((1S,5R)-3-isopropyl-3-azabicyclo[3.1.0]hexan-1-yl)phenyl)pyrazin-2-yl)-7-fluoro-3,4-dihydroisoquinolin-1(2H)-one], the IC50 in assay [2] is 0.1 to 5 nM; in assay [1] it was 11 to 20 nM.

`CC(C)N1CCN(c2ccc(-c3cnc(N)c(-c4cc5c(cc4F)C(=O)NCC5)n3)cc2)CC1` [Example I-44, 6-(3-amino-6-(4-(4-isopropylpiperazin-1-yl)phenyl)pyrazin-2-yl)-7-fluoro-3,4-dihydroisoquinolin-1(2H)-one]: the half-maximal inhibitory concentration (IC50) in assay [2] lay within 0.1 to 5 nM; in assay [1], 11 to 20 nM.

As to `CN([C@H]1CCN(c2ccc(-c3cnc(N)c(-c4ccc5c(c4)CCNC5=O)n3)cc2)C1)S(C)(=O)=O` [Example I-10, (S)-N-(1-(4-(5-amino-6-(1-oxo-1,2,3,4-tetrahydroisoquinolin-6-yl)pyrazin-2-yl)phenyl)pyrrolidin-3-yl)-N-methylmethanesulfonamide], the figures for the IC50 in assay [2] and in assay [1] were 0.1 to 5 nM and 11 to 20 nM, respectively.

Turning to `CN1CCN(c2ccc(-c3cnc(N)c(-c4ccc5c(c4)CCCNC5=O)n3)cc2)CC1` [Example I-50, 7-(3-amino-6-(4-(4-methylpiperazin-1-yl)phenyl)pyrazin-2-yl)-2,3,4,5-tetrahydro-1H-benzo[c]azepin-1-one], the results for the IC50 in assay [2] and in assay [1] were 0.1 to 5 nM and 6 to 10 nM, respectively.

Turning to `CN1CCN(c2ccc(-c3cnc(N)c(-c4cc5c(cc4F)C(=O)NCC5)n3)cc2)CC1` [Example I-12, 6-(3-amino-6-(4-(4-methylpiperazin-1-yl)phenyl)pyrazin-2-yl)-7-fluoro-3,4-dihydroisoquinolin-1(2H)-one], the IC50 in assay [2] fell in the range of 0.1 to 5 nM; in assay [1] it was 11 to 20 nM.

Consider `CC(C)[C@@H]1CN(c2ccc(-c3cnc(N)c(-c4cc5c(cc4F)C(=O)NCC5)n3)cc2)CCO1` [Example I-27, (R)-6-(3-amino-6-(4-(2-isopropylmorpholino)phenyl)pyrazin-2-yl)-7-fluoro-3,4-dihydroisoquinolin-1(2H)-one], for which the IC50 is 0.1 to 5 nM in assay [2] and 6 to 10 nM in assay [1].

As to `CC(C)[C@H]1CN(c2ccc(-c3cnc(N)c(-c4ccc5c(c4)CCNC5=O)n3)cc2)CCN1C` [Example I-40, (S)-6-(3-amino-6-(4-(3-isopropyl-4-methylpiperazin-1-yl)phenyl)pyrazin-2-yl)-3,4-dihydroisoquinolin-1(2H)-one], the IC50 was 0.1 to 5 nM in assay [2] and 6 to 10 nM in assay [1].

Regarding `Nc1ncc(-c2ccc(N3CCC(O)CC3)cc2)nc1-c1ccc2c(c1)CCNC2=O` [Example I-6, 6-(3-amino-6-(4-(4-hydroxypiperidin-1-yl)phenyl)pyrazin-2-yl)-3,4-dihydroisoquinolin-1(2H)-one], the IC50 in assay [2] was 0.1 to 5 nM; in assay [1], 11 to 20 nM.

Take `C[C@@H]1CN(C)CCN1c1ccc(-c2cnc(N)c(-c3ccc4c(c3)CCNC4=O)n2)cc1` [Example I-54, (R)-6-(3-amino-6-(4-(2,4-dimethylpiperazin-1-yl)phenyl)pyrazin-2-yl)-3,4-dihydroisoquinolin-1(2H)-one]: the IC50 in assay [2] was 0.1 to 5 nM.

As to `Nc1ncc(-c2ccc(N3CCOCC3)c(F)c2F)nc1-c1ccc2c(c1)CCNC2=O` [Comparator 2, 6-(3-amino-6-(2,3-difluoro-4-morpholinophenyl)pyrazin-2-yl)-3,4-dihydroisoquinolin-1(2H)-one, reference compound], the Selectivity in assay [1] is 930.

For `Cc1cc2cc(-c3nc(-c4ccc(C5CCOCC5)c(CN(C)C)c4)cnc3N)cc(F)c2c(=O)[nH]1` [II-4, 6-(3-amino-6-(3-((dimethylamino)methyl)-4-(tetrahydro-2H-pyran-4-yl)phenyl)pyrazin-2-yl)-8-fluoro-3-methylisoquinolin-1(2H)-one], the IC50 in assay [2] was in the range of 0.1 to 5 nM.

Regarding `Cc1c[nH]c(=O)c2cc(F)c(-c3nc(-c4ccc(C5CCOCC5)c(CN(C)C)c4)cnc3N)cc12` [II-2, 6-(3-amino-6-(3-((dimethylamino)methyl)-4-(tetrahydro-2H-pyran-4-yl)phenyl)pyrazin-2-yl)-7-fluoro-4-methylisoquinolin-1(2H)-one], the IC50 in assay [2] lay in the range of 0.1 to 5 nM.

Consider `Nc1ncc(-c2ccc(N3CCOCC3)cc2F)nc1-c1ccc2c(c1)CCNC2=O` [Comparator 4, 6-(3-amino-6-(2-fluoro-4-morpholinophenyl)pyrazin-2-yl)-3,4-dihydroisoquinolin-1(2H)-one, reference compound], for which, in assay [1], the Selectivity came to 405.

Take `CC(C)N1CCN(c2ccc(-c3cnc(N)c(-c4ccc5c(c4)CCNC5=O)n3)cc2)[C@H](C)C1` [Example I-53, (R)-6-(3-amino-6-(4-(4-isopropyl-2-methylpiperazin-1-yl)phenyl)pyrazin-2-yl)-3,4-dihydroisoquinolin-1(2H)-one]: the IC50 in assay [2] was 0.1 to 5 nM.

Consider `CCN1CCN(c2ccc(-c3cnc(N)c(-c4ccc5c(c4)CCNC5=O)n3)cc2)CC1` [Example I-56, 6-(3-amino-6-(4-(4-ethylpiperazin-1-yl)phenyl)pyrazin-2-yl)-3,4-dihydroisoquinolin-1(2H)_-one], for which the IC50 in assay [2] is 0.1 to 5 nM.

Take `CN(C)Cc1cc(C2CCOCC2)ccc1-c1cnc(N)c(-c2cc3c(cc2F)C(=O)NCC3)n1` [II-1, 6-(3-amino-6-(2-((dimethylamino)methyl)-4-(tetrahydro-2H-pyran-4-yl)phenyl)pyrazin-2-yl)-7-fluoro-3,4-dihydroisoquinolin-1(2H)-one]: the IC50 in assay [2] fell in the range of 6 to 10 nM.

`Cc1[nH]c(=O)c2c(F)cc(-c3nc(-c4ccc(C5CCOCC5)c(CN(C)C)c4)cnc3N)cc2c1F` [II-5, 6-(3-amino-6-(3-((dimethylamino)methyl)-4-(tetrahydro-2H-pyran-4-yl)phenyl)pyrazin-2-yl)-4,8-difluoro-3-methylisoquinolin-1(2H)-one]: the IC50 in assay [2] is 0.1 to 5 nM.

`Cc1nc2cc(-c3nc(-c4ccc(N5CCN(C)CC5)cc4)cnc3N)ccc2c(=O)[nH]1` [Example I-57, 7-(3-amino-6-(4-(4-methylpiperazin-1-yl)phenyl)pyrazin-2-yl)-2-methylquinazolin-4(3H)-one]: the IC50 in assay [2] lay in the range of 6 to 10 nM.

In the case of `Cc1cc2cc(-c3nc(-c4ccc(N5CCN(C)CC5)cc4)cnc3N)ccc2c(=O)[nH]1` [Example I-51, 6-(3-amino-6-(4-(4-methylpiperazin-1-yl)phenyl)pyrazin-2-yl)-3-methylisoquinolin-1(2H)-one], in assay [2], the IC50 was 0.1 to 5 nM.
